From ChEMBL document CHEMBL4823329, “Trisubstituted 1,3,5-Triazines: The First Ligands of the sY12-Binding Pocket on Chemokine CXCL12” (ACS Med Chem Lett, 2021)

Target: Stromal cell-derived factor 1 (Homo sapiens, UniProt P48061)
Assay: Binding affinity to wild type CXCL12 (unknown origin) by NMR spectroscopy
Conditions: not given; call rule not given here

Sequence of Stromal cell-derived factor 1 (P48061 whole entry): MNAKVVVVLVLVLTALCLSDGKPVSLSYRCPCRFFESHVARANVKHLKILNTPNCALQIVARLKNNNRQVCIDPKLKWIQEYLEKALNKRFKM

Row | Structure (SMILES) | Kd
1 | O=C(O)CSc1nc(SCC(=O)O)nc(C2=CCCCC2)n1 | Nd(Insoluble)
2 | O=C(O)c1ccc(Nc2nc(Nc3ccc(C(=O)O)cc3)nc(-c3ccccc3)n2)cc1 | Nd(Insoluble)
3 | O=C(O)CSc1nc(SCC(=O)O)nc(C2C3CC4CC(C3)CC2C4)n1 (stereo unspecified) | Not Active
4 | O=C(O)CSc1nc(SCC(=O)O)nc(-c2ccoc2)n1 | Nd(Insoluble)

Other lines, results leading:

Row | Kd | Structure (SMILES)
5 | Not Active | O=C(O)CSc1nc(SCC(=O)O)nc(-c2c3ccccc3cc3ccccc23)n1
6 | Nd(Insoluble) | O=C(O)CSc1nc(SCC(=O)O)nc(-c2ccc(-c3ccccc3)cc2)n1
7 | Nd(Insoluble) | O=C(O)CSc1nc(SCC(=O)O)nc(-c2ccc(Oc3ccccc3)cc2)n1
8 | Nd(Insoluble) | O=C(O)CSc1nc(SCC(=O)O)nc(-c2cnc3ccccc3c2)n1

Same assay, conditions: read-out: Kd

Row | Structure (SMILES) | Kd
9 | C[N+]1(c2nc(SCC(=O)O)nc(SCC(=O)O)n2)CCOCC1 | 3020 µM
10 | O=C(O)CSc1nc(SCC(=O)O)nc(-c2ccc(N3CCOCC3)cc2)n1 | 306 µM
11 | O=C(O)CSc1nc(SCC(=O)O)nc(N2CCOCC2)n1 | 234 µM
